Assays:
SOCS3 = test: STAT3 RT-qPCR assay, SOCS3 mRNA; type: cell-based; details: SU-DHL-1 cells
Procedure: (§1) SU-DHL-1 cells were treated with compounds for a designed time. 0.3-0.6 mL lysis buffer with 2-mercaptoethanol was added to the collected cell pellet or monolayer cells. The cells were vortexed until the cell was dispersed and the cells appear lysed. One volume of 70% ethanol was added to each volume of cell homogenate and vortex. 700 μL of the sample was transferred to the spin cartridge and centrifuged at 12000 g for 15s at RT. The flow-through was discarded and the process repeated until the entire samples had been processed. 700 ul wash buffer I was added to the spin cartridge and centrifuged at 12000 g for 15s at RT and the flow-through was discarded. 500 μL wash buffer II with ethanol was added to the spin cartridge and centrifuged at 12000 g for 15s at RT and the flow-through was discarded. The process was then repeated. The spin cartridge was centrifuged at 12000 g for 2 min to dry the membrane with bound RNA. 30-100 μL RNase-free water was added to the center of the spin cartridge and incubated for 1 min at RT. […] The concentration of the RNA was quantitated using Nano-Drop. cDNA was formed from the RNA by reverse transcription and qPCR of the cDNA with primer of the gene of interest and housekeeping gene was preformed using the volumes below: […]

ALK+ALCL cell lines = test: growth inhibition in multiple ALK+ALCL cell lines; type: cell-based; details: dose response curves, FIG. 16
[1] = tested on: STAT3-mediated gene expression (SOCS3, PD-L1); test: RT-qPCR of STAT3, SOCS3 and PDL-1 mRNA levels in SU-DHL-1 cells; type: cell-based; details: FIG. 15
Procedure: FIG. 5. Includes graphical images and tables showing the results of RT-qPCR in SU-DHL-1 cells at 24 hours (A) with mRNA levels (% control) over I-103 concentration (nM)(x-axis) for STAT3, SOCS3, and PDL-1 genes and CellTiterGlo (CTG) cell viability at 4 days (B) with growth inhibition (% control) over I-103 concentration (nM)(x-axis) for MOLM-16 and SU-DHL-1 cell lines. Also shown are the results of MSD degradation DC50 (nM) in MOLM-16 and SU-DHL-1 cell lines at 24 hours.

SUP-M2 tumor cells = test: Xenograph tumor study, SUP-M2; type: in vivo, NOD SCID mice; details: ALK+ALCL xenograph model SUP-M2, intermittent dosing, FIG. 20
Procedure: Animals: 50 6-8 week old female NOD SCID mice weighing 18 to 20 grams. 25 mice were used in each study.
Method for Tumor Inoculation: Each mouse was inoculated subcutaneously with SU-DHL-1 tumor cells (1×107+Matrigel) or SUP-M2 tumor cells (5×106+Matrigel) in 0.1 ml of RPMI1640 medium supplemented with 10% FBS, 100 U/ml penicillin and […] streptomycin for tumor development. Mice were then assigned to groups such that the mean tumor volume was the same for each treatment group and time point. […] Vehicle was 25% HP-β-CD in water adjusted to pH 7.4.
Measurement Parameters: Study animals were monitored not only for tumor growth but also behavior such as mobility, food and water consumption (by cage side checking only), body weight (BW), eye/hair matting and any other abnormal effect. Any mortality and/or abnormal clinical signs was recorded. Sponsor was notified immediately if abnormal clinical signs, or if tolerability issues were observed. Body weights of all animals were measured and recorded twice per week. The measurement of tumor size was conducted twice weekly with a caliper and recorded. The tumor volume (mm3) was estimated using the formula: TV=a×b2/2, where “a” and “b” are long and short diameters of a tumor, respectively.

PD-L1 = test: STAT3 RT-qPCR assay, PD-L1 mRNA; type: cell-based; details: SU-DHL-1 cells
Procedure: as §1

KARPAS-299 cells = test: CellTiter-Glo cell viability, KARPAS-299; type: cell-based
STAT3 [2] = biological target: STAT3 (Homo sapiens, UniProt P40763); test: STAT3 HiBiT degradation assay in transfected A549 cells; type: cell-based; parameters: expressed in transfected cells; host or cells: A549; details: A549, 24 h; read-out: STAT3 HiBiT A549 degradation 24 h: Average external-Abs DC50
Sequence of STAT3 (Homo sapiens, UniProt P40763) (P40763 whole entry): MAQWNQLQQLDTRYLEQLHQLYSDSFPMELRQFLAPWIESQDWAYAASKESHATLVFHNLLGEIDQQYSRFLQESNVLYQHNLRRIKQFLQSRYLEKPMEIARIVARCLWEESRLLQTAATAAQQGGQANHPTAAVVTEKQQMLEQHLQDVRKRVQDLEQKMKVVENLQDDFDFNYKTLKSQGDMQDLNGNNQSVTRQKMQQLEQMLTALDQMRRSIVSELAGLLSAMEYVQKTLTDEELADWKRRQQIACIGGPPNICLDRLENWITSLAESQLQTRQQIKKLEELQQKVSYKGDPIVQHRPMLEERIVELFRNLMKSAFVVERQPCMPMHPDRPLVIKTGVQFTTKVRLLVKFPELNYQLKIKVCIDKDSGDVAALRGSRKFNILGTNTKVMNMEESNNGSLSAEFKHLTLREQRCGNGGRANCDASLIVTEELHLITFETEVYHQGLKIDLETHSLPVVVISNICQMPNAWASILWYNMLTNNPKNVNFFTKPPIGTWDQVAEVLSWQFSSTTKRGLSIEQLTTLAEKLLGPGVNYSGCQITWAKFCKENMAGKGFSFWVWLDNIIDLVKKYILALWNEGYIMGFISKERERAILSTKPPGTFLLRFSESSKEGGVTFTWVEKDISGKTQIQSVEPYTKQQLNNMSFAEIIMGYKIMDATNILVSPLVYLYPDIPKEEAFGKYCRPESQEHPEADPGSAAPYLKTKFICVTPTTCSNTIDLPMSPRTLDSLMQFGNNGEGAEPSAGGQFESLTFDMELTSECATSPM
Outline: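 Transfected A549 cells (~2000/well) plated 24 h, then treated 24 h at 37 °C, 5% CO2 with a 3-fold, 10-point compound dilution. HiBiT lytic luminescence read after 10 min at room temperature; remaining STAT3 normalized to negative and positive controls, four-parameter fit. DC50 binned A <0.01, B 0.01–0.1, C 0.1–1.0, D >1.0 µM.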

SU-DHL-1 cells = test: wash-out study in SU-DHL-1 cells; type: cell-based; details: after 4 days
Procedure: FIG. 10 depicts wash-out study results with I-103 at 24 hours (A) and 48 hours (B).

STAT3 [3] = test: STAT3 RT-qPCR assay, STAT3 mRNA; type: cell-based; details: SU-DHL-1 cells, FIG. 5A, FIG. 15
Procedure: as §1

## Cn1c(=O)n(C2CCC(=O)NC2=O)c2ccc(C[C@H]3CC[C@@H](CC(=O)N4CC[C@H]5CC[C@@H](C(=O)N[C@@H](CCC(N)=O)C(=O)NC(c6ccccc6)c6ccccc6)N5C(=O)[C@@H](NC(=O)c5cc6cc(C(=O)P(=O)(O)O)ccc6[nH]5)C4)CC3)cc21 (stereo partly drawn) [Compound I-174, 2-[[(5S,8S,10aR)-8-[[(1S)-3-carbamoyl-1-(diphenylmethylcarbamoyl)propyl]carbamoyl]-6-oxo-3-[2-[(1s,4s)-4-[[1-(2,6-dioxopiperidin-3-yl)-3-methyl-2-oxo-1,3-benzodiazol-5-yl]methyl]cyclohexyl]acetyl]-octahydropyrrolo[1,2-a][1,5]diazocin-5-yl]carbamoyl]-1H-indole-5-carbonylphosphonic acid]
SOCS3; Homo sapiens, 24 hr
  IC50: 0.022 µM
SOCS3; FIG. 5A, FIG. 15
  STAT3-dependent gene expression of SOCS3: downregulates
ALK+ALCL cell lines
  growth inhibition in multiple ALK+ALCL cell lines: mediated growth inhibition
[1]
  STAT3-mediated gene expression of SOCS3 and PD-L1: repression of STAT3-mediated gene expression
SUP-M2 tumor cells
  tumor regression: achieves tumor regression
PD-L1; Homo sapiens, 24 hr
  IC50: 0.029 µM
PD-L1; FIG. 5A, FIG. 15
  STAT3-dependent gene expression of PDL-1: downregulates
KARPAS-299 cells; Homo sapiens, 96 h, KARPAS-299, ALCL (ALK+), Day 4, read-out: CTG, IC50 μM, Day 4
  IC50: 0.084 µM
KARPAS-299 cells; KARPAS-299, ALCL (ALK+), Day 4
  CTG (% Max inh), Day 4: (90) %
KARPAS-299 cells; KARPAS-299, FIG. 16
  cell proliferation: inhibit
STAT3 [2]
  DC50: 10 to 100 nM
SU-DHL-1 cells; 24 hours wash-out
  growth and cell death after wash-out: strong growth inhibition and potential cell death
SU-DHL-1 cells; 48 hours wash-out
  growth and cell death after wash-out: complete growth inhibition and cell death
STAT3 [3]
  STAT3-dependent gene expression of STAT3: downregulates

— US12077555B2, “STAT degraders and uses thereof” (Kymera Therapeutics, Inc., priority 2019, dated 2024)
